From ChEMBL document CHEMBL4715869, “N-(Pyrimidin-2-yl)-1,2,3,4-tetrahydroisoquinolin-6-amine Derivatives as Selective Janus Kinase 2 Inhibitors for the Treatment of Myeloproliferative Neoplasms” (J Med Chem, 2020) come the findings set out here.

In data set [1] the test system is Tyrosine-protein kinase JAK2 (Homo sapiens), O60674 [V617F]. Nature of the data set: Inhibition of JAK2 V617F mutant in human SET-2 cells assessed as reduction in JAk2 phosphorylation after 2 hrs by Western blot analysis. Format: cell-based. Conditions: SET2, dose 1-1000 nM. Background: A western blot detects proteins with antibodies after separation by electrophoresis.
Chain of Tyrosine-protein kinase JAK2 (Homo sapiens), O60674 [V617F] (O60674 whole entry V617F): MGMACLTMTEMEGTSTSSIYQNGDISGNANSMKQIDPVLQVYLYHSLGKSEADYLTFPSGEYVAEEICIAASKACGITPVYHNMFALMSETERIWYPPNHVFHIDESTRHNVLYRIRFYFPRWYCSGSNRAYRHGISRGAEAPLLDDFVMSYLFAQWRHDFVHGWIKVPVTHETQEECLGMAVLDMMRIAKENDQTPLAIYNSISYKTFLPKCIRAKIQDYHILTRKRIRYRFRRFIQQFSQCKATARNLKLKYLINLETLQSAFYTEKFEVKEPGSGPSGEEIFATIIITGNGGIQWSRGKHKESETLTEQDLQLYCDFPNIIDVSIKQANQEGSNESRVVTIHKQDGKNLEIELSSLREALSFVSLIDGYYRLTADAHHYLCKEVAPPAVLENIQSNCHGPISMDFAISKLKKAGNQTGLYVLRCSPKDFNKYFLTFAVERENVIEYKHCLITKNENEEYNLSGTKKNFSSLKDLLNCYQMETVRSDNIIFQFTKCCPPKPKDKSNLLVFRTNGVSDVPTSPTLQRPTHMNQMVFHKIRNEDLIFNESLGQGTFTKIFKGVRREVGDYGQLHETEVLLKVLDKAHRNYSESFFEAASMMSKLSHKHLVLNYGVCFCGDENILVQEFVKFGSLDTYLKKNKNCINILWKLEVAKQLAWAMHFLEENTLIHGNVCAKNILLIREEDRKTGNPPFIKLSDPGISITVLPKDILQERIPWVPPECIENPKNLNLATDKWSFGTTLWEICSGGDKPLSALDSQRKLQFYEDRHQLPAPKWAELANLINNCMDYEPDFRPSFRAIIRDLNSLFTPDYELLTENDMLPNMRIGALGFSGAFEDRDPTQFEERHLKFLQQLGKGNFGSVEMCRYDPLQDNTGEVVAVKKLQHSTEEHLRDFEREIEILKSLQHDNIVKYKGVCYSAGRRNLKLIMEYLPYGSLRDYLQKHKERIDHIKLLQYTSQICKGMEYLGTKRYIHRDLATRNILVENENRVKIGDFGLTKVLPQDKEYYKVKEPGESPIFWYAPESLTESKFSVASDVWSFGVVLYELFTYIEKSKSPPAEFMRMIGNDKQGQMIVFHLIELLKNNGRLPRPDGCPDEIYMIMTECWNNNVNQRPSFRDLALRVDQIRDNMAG

In data set [2] the test system is Mus musculus. Briefly: In vivo inhibition of JAK2 V617F mutant in mouse BAF3 cells xenografted Balb/c nude mouse assessed as decrease in STAT5 phosphorylation in spleen at 30 to 60 mg/kg, po qd administered starting from day 4 to 20 and measured on day 25 by Western blot analysis. The conditions noted are these: dose 30-60 mg/kg, time 21.0 day. It is filed as functional, organism-based.

The subject of data set [3] is L02. Nature of the data set: Cytotoxicity against human L02 cells assessed as reduction in cell viability incubated for 72 hrs by MTT assay. It is filed as cell-based. Conditions: L02, 72 h.
For data set [4], the system named is Tyrosine-protein kinase JAK2 (Mus musculus), Q62120 [V617F]. Nature of the data set: Inhibition of JAK2 V617F mutant in mouse BAF3 cells assessed as decrease in STAT5 phosphorylation at 50 nM after 2 hrs by Western blot analysis. Format: cell-based.
Chain of Tyrosine-protein kinase JAK2 (Mus musculus), Q62120 [V617F] (Q62120 as listed by the source): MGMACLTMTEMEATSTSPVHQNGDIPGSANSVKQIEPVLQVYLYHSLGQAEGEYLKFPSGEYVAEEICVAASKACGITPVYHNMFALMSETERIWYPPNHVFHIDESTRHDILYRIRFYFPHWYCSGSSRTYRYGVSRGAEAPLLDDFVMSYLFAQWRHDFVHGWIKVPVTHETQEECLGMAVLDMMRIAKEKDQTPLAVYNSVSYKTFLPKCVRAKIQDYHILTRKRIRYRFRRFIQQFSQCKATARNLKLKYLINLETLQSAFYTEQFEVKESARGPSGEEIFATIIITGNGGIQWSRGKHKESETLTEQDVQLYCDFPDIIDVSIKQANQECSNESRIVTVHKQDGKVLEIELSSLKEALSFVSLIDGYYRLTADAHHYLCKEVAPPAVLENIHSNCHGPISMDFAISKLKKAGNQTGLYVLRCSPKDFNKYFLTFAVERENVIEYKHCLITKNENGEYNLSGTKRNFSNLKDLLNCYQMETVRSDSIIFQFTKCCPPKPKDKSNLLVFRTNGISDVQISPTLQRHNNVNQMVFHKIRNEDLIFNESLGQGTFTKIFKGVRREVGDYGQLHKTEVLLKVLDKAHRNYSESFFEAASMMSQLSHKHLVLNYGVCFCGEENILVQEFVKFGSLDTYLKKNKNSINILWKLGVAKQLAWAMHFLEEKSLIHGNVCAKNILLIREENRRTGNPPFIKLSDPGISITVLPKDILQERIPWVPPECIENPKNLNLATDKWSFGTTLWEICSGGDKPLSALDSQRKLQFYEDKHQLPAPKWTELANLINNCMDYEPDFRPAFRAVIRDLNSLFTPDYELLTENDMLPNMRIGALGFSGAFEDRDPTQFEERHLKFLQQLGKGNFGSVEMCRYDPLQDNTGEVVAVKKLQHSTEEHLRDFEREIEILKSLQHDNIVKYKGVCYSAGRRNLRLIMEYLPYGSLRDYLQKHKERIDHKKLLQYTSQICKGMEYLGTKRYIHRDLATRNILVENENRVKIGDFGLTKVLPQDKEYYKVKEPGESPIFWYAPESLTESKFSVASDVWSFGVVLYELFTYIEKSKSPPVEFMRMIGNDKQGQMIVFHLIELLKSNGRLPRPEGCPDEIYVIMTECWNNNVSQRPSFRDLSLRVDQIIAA
For data set [5], the system named is BaF3. Briefly: Antitumor activity against mouse BAF3 cells harboring JAK2 V617F mutant implanted in Balb/c mouse assessed as decrease in spleen weight at 60 mg/kg, po qd administered starting from day 4 to 20 and measured on day 25 relative to control. It is filed as functional. The arrangement: scale not given: the % may be the effect or the level left. The conditions noted are these: time 21 day.

The subject of data set [6] is SET-2. Briefly: Antitumor activity against human SET2 cells xenografted in NOD/SCID mouse assessed as tumor growth inhibition at 15 mg/kg, po qd administered for 16 days and measured every 2 days relative to control. It is filed as functional. The conditions noted are these: SET-2, po, 384 h, time 16 day, read-out: TGI.
Data set [7] deals with T1, Signal transducer and activator of transcription 1 (Mus musculus) (UniProt P42225).
T1 sequence (whole entry): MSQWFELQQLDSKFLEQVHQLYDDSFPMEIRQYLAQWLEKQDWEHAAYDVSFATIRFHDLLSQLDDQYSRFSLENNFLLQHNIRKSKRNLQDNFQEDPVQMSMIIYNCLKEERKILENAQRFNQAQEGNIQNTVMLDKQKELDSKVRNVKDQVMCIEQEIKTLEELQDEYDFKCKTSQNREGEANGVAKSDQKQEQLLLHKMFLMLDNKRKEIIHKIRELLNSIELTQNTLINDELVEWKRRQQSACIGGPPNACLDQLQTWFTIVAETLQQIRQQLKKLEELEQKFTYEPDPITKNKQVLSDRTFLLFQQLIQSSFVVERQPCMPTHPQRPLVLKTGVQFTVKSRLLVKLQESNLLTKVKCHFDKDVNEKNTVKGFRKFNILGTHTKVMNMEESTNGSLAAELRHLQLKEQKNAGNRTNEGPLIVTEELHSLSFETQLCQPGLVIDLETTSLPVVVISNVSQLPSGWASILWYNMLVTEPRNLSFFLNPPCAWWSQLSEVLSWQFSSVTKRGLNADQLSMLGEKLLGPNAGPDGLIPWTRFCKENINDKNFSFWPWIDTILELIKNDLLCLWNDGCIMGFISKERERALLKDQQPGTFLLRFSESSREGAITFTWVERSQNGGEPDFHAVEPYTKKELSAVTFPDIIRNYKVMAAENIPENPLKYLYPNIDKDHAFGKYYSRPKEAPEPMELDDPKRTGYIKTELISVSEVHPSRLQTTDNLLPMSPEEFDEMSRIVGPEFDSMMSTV
Nature of the data set: Inhibition of STAT1 phosphorylation in mouse BAF3 cells at 1000 nM after 2 hrs by Western blot analysis. Format: cell-based.

Data set [8] has as its target Tyrosine-protein kinase JAK1 (Homo sapiens, UniProt P23458). Nature of the data set: Inhibition of human JAK1 (866 to end residues) using GEEPLYWSFPAKKK as substrate after 40 mins by [gamma-33ATP] radiometric assay.
Data set [9] has as its target T2, Tyrosine-protein kinase JAK3 (Homo sapiens, UniProt P52333).
T2 sequence (P52333 whole entry): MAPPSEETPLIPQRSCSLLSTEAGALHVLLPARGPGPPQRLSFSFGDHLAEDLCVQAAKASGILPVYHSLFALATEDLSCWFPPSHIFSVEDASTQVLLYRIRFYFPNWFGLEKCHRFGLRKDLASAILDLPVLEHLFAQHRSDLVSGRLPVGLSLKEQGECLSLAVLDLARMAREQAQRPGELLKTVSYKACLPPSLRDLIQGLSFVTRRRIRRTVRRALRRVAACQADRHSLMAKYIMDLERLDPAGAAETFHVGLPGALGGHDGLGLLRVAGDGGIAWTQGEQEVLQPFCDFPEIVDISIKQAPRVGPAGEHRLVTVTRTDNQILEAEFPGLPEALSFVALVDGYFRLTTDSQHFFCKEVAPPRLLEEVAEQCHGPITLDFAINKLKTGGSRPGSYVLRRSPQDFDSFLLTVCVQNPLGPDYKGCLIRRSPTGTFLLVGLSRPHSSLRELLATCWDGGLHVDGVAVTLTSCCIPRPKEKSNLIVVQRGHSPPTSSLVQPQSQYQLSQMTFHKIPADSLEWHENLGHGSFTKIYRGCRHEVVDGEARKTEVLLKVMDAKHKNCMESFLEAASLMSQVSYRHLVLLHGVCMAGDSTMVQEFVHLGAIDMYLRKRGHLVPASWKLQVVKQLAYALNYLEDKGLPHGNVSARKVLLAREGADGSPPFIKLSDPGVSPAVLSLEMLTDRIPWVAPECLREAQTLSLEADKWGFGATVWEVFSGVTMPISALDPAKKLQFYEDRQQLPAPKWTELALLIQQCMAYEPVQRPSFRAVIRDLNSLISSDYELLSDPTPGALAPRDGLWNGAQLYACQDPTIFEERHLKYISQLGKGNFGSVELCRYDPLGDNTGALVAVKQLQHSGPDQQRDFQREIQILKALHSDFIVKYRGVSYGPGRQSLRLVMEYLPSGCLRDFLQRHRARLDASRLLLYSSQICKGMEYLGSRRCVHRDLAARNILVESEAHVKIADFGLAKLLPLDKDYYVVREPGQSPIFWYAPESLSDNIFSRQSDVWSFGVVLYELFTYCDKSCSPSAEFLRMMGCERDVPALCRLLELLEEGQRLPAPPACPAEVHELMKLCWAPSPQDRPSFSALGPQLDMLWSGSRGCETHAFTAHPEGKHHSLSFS
Briefly: Inhibition of recombinant human JAK3 (781 to end residues) using GGEEEEYFELVKKKK as substrate measured after 40 mins in presence of [gamm33P]ATP by scintillation counting method.

A short description of data set [10]: Toxicity in NOD/SCID mouse xenografted with human SET2 cells assessed as animal survival at 15 mg/kg, po qd administered for 16 days and measured every 2 days. Format: organism-based. The conditions noted are these: in vivo, 384 h, time 16 day.
For data set [11], the species on record is Homo sapiens. Briefly: Selectivity index, ratio of IC50 for inhibition of FLT3 ITD mutant in human MOLM13 cells to IC50 for inhibition of JAK2 V617F mutant in human SET-2 cells. It is filed as cell-based.
Data set [12] in a line: Apparent clearance in Sprague-Dawley rat at 5 mg/kg, iv administered […] measured upto 24 hrs by LC/MS/MS analysis. Format: ADME, organism-based. The conditions noted are these: in vivo, read-out: CL(app) (converted).

The source made the active and inactive calls. No cut-off for these calls is given here.

Chain of Tyrosine-protein kinase JAK1 (P23458 whole entry): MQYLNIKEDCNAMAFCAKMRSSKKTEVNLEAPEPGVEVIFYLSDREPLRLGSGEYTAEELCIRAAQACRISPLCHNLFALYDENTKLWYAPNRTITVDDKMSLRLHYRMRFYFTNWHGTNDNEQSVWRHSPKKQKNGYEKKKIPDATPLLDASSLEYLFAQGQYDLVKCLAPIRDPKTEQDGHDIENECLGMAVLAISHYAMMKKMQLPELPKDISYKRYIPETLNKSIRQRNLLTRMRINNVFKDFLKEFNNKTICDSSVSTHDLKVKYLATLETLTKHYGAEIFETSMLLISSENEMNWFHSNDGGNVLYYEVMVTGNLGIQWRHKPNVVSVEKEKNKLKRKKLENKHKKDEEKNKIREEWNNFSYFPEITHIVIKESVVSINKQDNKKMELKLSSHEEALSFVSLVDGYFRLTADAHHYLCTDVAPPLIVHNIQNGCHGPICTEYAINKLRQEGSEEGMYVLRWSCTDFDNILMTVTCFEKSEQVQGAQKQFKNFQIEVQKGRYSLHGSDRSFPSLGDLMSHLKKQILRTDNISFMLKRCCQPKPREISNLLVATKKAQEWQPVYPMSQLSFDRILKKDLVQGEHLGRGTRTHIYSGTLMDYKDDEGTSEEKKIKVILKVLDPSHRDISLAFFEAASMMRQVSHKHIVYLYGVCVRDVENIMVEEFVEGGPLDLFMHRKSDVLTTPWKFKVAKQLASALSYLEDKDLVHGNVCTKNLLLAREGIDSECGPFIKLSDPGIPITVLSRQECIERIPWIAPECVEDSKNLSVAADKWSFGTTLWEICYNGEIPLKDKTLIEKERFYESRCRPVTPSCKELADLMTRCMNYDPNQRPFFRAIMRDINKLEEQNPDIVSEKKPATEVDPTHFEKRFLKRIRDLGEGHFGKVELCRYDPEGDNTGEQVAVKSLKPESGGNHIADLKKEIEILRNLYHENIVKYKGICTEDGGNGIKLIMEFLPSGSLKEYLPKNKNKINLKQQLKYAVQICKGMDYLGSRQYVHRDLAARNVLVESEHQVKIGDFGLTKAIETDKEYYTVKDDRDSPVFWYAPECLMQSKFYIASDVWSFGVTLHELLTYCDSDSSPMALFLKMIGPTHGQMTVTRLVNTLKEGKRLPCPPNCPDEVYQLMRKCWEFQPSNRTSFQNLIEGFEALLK

Turning to `Cc1cnc(Nc2ccc3c(c2)CCN(C(=O)/C=C/CN(C)C)C3)nc1-c1cnn(C(C)C)c1`, in [1], the inhibition result is “Dose-dependent effect”. For the same compound, the inhibition entry in data set [2] and in data set [4] was “Active” in each case. The IC50 – broadly, the midpoint of a concentration-inhibition curve – came out at 7.22 µM in [3], 0.042 µM in data set [8] and 0.094 µM in [9]. For the same compound, the figures for the Activity in data set [5] and in data set [10] were 77.1% and “Non-Toxic”, respectively. The inhibition in vivo at 15 mg/kg in [6] was determined as 51.4%. The inhibition result in data set [7] was “inactive”. For the same compound, the Ratio IC50 in [11] amounted to 75.2. In addition, in [12], the clearance is 5.01 L/h/kg.
